Tests used:
Test in all cases: SelectScreen, TR FRET
Conditions in all cases: compound 5.0 µM
JAK3 JH1 JH2 (human) = JAK3 JH1 JH2 (human) (UniProt P52333)
PRKCQ (human) = PRKCQ (human) (UniProt Q04759)
[1] = tested on: EGFR (human), P00533 [L858R]
MAPK14 (human) = MAPK14 (human) (UniProt Q16539)
SGK2 (human) = SGK2 (human) (UniProt Q9HBY8)
IKBKB (human) = IKBKB (human) (UniProt O14920)
[2] = tested on: ABL1 (human), P00519 [E255K]
CSNK2A1 (human) = CSNK2A1 (human) (UniProt P68400)
CSNK1G3 (human) = CSNK1G3 (human) (UniProt Q9Y6M4)
PRKCH (human) = PRKCH (human) (UniProt P24723)
[3] = tested on: EGFR (human), P00533 [L861Q]
[4] = tested on: KIT (human), P10721 [T670I]
NTRK2 (human) = NTRK2 (human) (UniProt Q16620)
EGFR (human) = EGFR (human) (UniProt P00533)
GRK7 (human) = GRK7 (human) (UniProt Q8WTQ7)
RPS6KA3 KD1 KD2 (human) = RPS6KA3 KD1 KD2 (human) (UniProt P51812)
PTK6 (human) = PTK6 (human) (UniProt Q13882)
Sequence of PTK6 (human) (Q13882 whole entry, looked up): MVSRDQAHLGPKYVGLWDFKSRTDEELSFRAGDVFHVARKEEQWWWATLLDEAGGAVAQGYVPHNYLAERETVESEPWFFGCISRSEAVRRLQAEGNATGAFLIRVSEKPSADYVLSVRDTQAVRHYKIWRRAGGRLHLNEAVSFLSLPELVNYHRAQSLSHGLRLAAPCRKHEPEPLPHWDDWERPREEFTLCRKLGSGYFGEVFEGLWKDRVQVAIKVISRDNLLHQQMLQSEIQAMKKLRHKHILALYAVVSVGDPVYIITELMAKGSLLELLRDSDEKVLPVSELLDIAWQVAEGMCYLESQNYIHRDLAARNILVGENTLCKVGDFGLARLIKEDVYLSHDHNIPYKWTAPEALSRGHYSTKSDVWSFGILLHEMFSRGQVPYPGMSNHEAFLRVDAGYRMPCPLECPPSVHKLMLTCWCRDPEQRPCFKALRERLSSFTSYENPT

INSRR (human) = INSRR (human) (UniProt P14616)
MAP4K4 (human) = MAP4K4 (human) (UniProt O95819)
SRC (human) = SRC (human) (UniProt P12931)
MUSK (human) = MUSK (human) (UniProt O15146)
Sequence of MUSK (human) (O15146 whole entry, looked up): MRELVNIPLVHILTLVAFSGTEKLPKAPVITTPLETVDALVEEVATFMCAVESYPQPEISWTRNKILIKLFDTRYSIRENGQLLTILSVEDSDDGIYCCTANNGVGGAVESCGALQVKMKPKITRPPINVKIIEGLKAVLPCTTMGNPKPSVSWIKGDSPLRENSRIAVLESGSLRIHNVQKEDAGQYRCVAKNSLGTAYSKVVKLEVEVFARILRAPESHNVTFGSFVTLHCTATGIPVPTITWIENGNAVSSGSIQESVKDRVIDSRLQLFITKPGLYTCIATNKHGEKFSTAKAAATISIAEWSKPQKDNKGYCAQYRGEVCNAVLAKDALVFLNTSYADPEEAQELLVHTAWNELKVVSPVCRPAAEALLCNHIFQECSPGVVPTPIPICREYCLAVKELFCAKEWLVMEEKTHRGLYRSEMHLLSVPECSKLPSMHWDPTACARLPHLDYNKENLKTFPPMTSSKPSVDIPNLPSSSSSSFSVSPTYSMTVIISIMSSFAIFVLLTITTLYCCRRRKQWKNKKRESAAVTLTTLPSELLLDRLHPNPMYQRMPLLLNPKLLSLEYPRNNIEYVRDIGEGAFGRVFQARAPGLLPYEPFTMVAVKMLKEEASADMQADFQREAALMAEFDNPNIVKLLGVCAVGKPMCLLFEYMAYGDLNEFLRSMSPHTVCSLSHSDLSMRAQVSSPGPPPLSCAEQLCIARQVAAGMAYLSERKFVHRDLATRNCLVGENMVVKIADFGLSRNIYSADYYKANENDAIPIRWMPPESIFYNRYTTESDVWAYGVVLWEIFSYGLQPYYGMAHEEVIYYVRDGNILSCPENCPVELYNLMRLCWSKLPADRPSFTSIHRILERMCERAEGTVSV

FLT4 (human) = FLT4 (human) (UniProt P35916)
Sequence of FLT4 (human) (P35916 whole entry, looked up): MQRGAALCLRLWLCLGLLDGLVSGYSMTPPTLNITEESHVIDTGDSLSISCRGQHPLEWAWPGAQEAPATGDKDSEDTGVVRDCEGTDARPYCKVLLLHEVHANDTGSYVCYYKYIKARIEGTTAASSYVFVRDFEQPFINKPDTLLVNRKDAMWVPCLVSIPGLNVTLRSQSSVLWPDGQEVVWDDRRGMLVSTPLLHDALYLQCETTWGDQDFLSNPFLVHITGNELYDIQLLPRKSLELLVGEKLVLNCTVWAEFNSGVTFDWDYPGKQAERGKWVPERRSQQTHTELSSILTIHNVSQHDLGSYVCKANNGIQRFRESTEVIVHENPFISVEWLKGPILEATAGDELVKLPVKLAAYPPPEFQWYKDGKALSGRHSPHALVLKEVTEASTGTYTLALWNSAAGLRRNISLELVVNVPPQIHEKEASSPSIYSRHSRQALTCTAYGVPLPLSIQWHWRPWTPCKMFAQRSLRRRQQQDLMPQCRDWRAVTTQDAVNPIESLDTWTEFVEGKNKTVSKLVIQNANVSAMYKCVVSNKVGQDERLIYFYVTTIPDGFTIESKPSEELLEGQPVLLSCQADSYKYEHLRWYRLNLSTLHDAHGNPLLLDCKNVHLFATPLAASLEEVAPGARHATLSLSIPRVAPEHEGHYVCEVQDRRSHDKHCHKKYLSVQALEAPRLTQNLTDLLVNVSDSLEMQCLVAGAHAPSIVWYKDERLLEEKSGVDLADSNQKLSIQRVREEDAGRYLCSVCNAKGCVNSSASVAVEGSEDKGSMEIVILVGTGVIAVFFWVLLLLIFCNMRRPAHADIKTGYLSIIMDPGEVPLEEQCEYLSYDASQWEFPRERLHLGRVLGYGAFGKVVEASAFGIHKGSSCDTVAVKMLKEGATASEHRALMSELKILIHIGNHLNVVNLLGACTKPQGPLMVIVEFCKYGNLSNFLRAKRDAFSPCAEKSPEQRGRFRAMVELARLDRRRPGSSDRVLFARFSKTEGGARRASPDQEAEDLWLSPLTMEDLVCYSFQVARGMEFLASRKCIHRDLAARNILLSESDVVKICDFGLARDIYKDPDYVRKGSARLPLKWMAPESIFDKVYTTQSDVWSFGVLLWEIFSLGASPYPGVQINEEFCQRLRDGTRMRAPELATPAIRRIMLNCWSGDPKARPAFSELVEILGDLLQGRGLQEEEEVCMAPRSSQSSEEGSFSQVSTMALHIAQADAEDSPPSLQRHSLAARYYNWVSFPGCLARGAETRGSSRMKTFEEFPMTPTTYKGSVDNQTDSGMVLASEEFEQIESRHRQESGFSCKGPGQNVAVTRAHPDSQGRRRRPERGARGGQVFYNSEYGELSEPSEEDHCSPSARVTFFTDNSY

STK24 (human) = STK24 (human) (UniProt Q9Y6E0)
EPHB2 (human) = EPHB2 (human) (UniProt P29323)
MAPK3 (human) = MAPK3 (human) (UniProt P27361)
SYK (human) = SYK (human) (UniProt P43405)
FGFR2 (human) = FGFR2 (human) (UniProt P21802)
Sequence of FGFR2 (human) (P21802 whole entry, looked up): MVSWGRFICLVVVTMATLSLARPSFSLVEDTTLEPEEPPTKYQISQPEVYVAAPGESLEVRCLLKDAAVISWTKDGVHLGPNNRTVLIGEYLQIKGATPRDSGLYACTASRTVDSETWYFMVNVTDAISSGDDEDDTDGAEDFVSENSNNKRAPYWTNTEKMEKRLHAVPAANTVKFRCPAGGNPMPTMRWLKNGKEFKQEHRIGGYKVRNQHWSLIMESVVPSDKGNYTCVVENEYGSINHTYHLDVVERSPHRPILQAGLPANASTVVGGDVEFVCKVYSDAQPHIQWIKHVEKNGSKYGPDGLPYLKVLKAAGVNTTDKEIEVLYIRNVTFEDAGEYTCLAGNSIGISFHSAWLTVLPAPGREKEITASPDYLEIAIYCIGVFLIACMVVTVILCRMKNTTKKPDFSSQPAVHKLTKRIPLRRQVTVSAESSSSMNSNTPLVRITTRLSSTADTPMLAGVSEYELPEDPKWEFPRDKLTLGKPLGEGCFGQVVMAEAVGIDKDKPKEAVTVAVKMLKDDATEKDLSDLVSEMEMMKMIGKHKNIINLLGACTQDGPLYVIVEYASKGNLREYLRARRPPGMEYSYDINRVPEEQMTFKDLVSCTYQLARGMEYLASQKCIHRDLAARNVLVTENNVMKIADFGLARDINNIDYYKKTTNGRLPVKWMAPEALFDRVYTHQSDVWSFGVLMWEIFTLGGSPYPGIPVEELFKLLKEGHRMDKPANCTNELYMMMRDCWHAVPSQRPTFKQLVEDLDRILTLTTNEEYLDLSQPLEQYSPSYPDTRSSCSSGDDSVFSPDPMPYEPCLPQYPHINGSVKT

EPHA4 (human) = EPHA4 (human) (UniProt P54764)
TSSK1B (human) = TSSK1B (human) (UniProt Q9BXA7)
CLK1 (human) = CLK1 (human) (UniProt P49759)
CAMK2A (human) = CAMK2A (human) (UniProt Q9UQM7)
MATK (human) = MATK (human) (UniProt P42679)
CSNK1D (human) = CSNK1D (human) (UniProt P48730)
GRK5 (human) = GRK5 (human) (UniProt P34947)
[5] = tested on: PDGFRA (human), P16234 [D842V]
CSNK1G1 (human) = CSNK1G1 (human) (UniProt Q9HCP0)
PLK3 (human) = PLK3 (human) (UniProt Q9H4B4)
MAP4K2 (human) = MAP4K2 (human) (UniProt Q12851)
CDK5 CDK5R1 p35 (human) = CDK5 CDK5R1 p35 (human) (UniProt Q00535+Q15078)
CDK2 CCNA2 (human) = CDK2 CCNA2 (human) (UniProt P24941+P20248)

Sequence of ABL1 (human), P00519 [E255K] (P00519 whole entry E255K, looked up): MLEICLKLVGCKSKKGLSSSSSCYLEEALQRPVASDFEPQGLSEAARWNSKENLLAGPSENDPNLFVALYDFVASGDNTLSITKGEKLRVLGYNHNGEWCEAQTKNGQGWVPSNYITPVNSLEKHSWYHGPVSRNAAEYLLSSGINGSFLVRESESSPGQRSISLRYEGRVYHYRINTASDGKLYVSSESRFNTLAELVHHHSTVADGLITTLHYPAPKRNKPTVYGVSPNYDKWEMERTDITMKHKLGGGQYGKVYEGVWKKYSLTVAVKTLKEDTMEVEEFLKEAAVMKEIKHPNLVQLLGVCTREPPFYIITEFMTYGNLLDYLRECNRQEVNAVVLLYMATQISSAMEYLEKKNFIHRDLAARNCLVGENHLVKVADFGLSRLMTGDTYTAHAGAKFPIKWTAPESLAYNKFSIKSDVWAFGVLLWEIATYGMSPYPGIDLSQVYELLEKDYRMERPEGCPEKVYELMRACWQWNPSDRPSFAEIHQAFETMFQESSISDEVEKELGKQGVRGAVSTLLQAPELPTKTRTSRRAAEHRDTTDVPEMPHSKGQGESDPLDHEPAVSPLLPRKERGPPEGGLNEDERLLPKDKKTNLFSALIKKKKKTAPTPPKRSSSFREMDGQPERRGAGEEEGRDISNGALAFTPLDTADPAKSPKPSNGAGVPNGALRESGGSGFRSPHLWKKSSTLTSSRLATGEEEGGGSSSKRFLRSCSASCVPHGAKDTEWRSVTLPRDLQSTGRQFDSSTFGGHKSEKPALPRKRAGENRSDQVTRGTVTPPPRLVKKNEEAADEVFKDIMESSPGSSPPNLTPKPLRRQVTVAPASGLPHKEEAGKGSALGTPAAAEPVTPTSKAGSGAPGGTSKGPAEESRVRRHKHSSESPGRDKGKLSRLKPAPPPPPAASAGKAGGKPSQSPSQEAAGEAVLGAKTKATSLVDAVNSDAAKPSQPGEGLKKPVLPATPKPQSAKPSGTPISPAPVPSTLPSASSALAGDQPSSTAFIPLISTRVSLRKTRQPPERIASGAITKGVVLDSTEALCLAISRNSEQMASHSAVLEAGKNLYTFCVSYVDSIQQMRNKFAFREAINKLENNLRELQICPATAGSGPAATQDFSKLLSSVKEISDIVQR
Sequence of CSNK2A1 (human) (P68400 whole entry, looked up): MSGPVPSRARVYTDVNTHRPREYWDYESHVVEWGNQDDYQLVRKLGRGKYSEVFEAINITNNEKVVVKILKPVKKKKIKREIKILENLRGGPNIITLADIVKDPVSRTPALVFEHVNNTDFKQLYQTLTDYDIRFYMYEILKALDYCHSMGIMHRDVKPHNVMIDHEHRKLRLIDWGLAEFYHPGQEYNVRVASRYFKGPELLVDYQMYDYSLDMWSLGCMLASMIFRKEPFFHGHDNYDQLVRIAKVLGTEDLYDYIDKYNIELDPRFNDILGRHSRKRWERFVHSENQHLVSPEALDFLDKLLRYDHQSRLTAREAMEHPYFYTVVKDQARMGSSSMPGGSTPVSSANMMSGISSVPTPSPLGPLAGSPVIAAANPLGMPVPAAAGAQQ

inhibition (JAK3 JH1 JH2 (human)): 7% | inhibition (PRKCQ (human)): 5% | inhibition [1]: 12% | inhibition (MAPK14 (human)): 4% | inhibition (SGK2 (human)): 10% | inhibition (IKBKB (human)): -2% | inhibition [2]: -4% | inhibition (CSNK2A1 (human)): 1% | inhibition (CSNK1G3 (human)): -3% | inhibition (PRKCH (human)): 4% | inhibition [3]: 6% | inhibition [4]: 13% | inhibition (NTRK2 (human)): 9% | inhibition (EGFR (human)): 3% | inhibition (GRK7 (human)): 0% | inhibition (RPS6KA3 KD1 KD2 (human)): 2% | inhibition (PTK6 (human)): -10% | inhibition (INSRR (human)): 3% | inhibition (MAP4K4 (human)): 1% | inhibition (SRC (human)): 10% | inhibition (MUSK (human)): 5% | inhibition (FLT4 (human)): 2% | inhibition (STK24 (human)): 7% | inhibition (EPHB2 (human)): 0% | inhibition (MAPK3 (human)): 7% | inhibition (SYK (human)): 1% | inhibition (FGFR2 (human)): 2% | inhibition (EPHA4 (human)): 9% | inhibition (TSSK1B (human)): -4% | inhibition (CLK1 (human)): 32% | inhibition (CAMK2A (human)): 2% | inhibition (MATK (human)): 0% | inhibition (CSNK1D (human)): 4% | inhibition (GRK5 (human)): 1% | inhibition [5]: 1% | inhibition (CSNK1G1 (human)): 1% | inhibition (PLK3 (human)): 1% | inhibition (MAP4K2 (human)): 6% | inhibition (CDK5 CDK5R1 p35 (human)): -1% | inhibition (CDK2 CCNA2 (human)): 2%
Structure (SMILES): Nc1cc(C(F)(F)F)c(-c2cc(N3CCOCC3)nc(N3CCOCC3)n2)cn1

Reference: the kinase profiling compilation of Christmann-Franck et al. (2016)
